# Results: PMC3355380, “Back to the Future: Lessons Learned in Modern Target-based and Whole-Cell Lead Optimization of Antimalarials” (Current Topics in Medicinal Chemistry, 2012)
# Like-named read-outs stand apart in the source and are kept apart here.
# How the values were obtained:
# [1] = system: chloroquine-resistant K1 P. falciparum strain; set-up: method as in PMID 20813948; conditions: Fig. 4; cited from earlier work
# [2] = system: P. falciparum NF54; set-up: method as in PMID 20813948; conditions: Fig. 4; cited from earlier work
# [3] = PAMPA permeability assay; type: in vitro ADME
# Description: Access to these types of in vitro assays, both within industry and academia, can greatly accelerate the drug discovery process.
# [4] = in vivo PK in mouse
# [5] = system: Plasmodium berghei; assay: P. berghei murine model; type: in vivo; conditions: for Activity (%): average parasitemia reduction; for Survival: untreated mice 6-7 days
# [6] = aqueous solubility; type: physicochemical; conditions: aqueous medium, pH 6.8, aqueous buffer
# [7] = system: P. falciparum 3D7; assay: P. falciparum 3D7 proliferation assay; type: cell-based, Plasmodium falciparum; conditions: Plasmodium falciparum, 3D7
# Description: (§1) We screened both our in-house compound collection (~2.3M compounds) and natural products library (12,000 compounds) using a cell based Plasmodium falciparum proliferation assay. This screen provided data on a large number of chemically diverse anti-malarial compounds. These nearly 5700 hits have been deposited into the public EBI database by GNF/Novartis. A number of these hits originated from kinase-directed libraries and many of which are pan-kinase inhibitors. De-convoluting and eliminating inherent kinase activity with many of these scaffolds while maintaining cellular potency was the first step in the hit-to-lead phase for these particular chemotypes. What follows is a summary of the chemical optimization of some kinase-like and non-kinase scaffolds which came out of the whole-cell screening effort.
# [8] = biological target: recombinant PfCDPK1 (Plasmodium falciparum, UniProt P62344); assay: PfCDPK1 enzyme inhibition; type: biochemical
# recombinant PfCDPK1, sequence (P62344 whole entry): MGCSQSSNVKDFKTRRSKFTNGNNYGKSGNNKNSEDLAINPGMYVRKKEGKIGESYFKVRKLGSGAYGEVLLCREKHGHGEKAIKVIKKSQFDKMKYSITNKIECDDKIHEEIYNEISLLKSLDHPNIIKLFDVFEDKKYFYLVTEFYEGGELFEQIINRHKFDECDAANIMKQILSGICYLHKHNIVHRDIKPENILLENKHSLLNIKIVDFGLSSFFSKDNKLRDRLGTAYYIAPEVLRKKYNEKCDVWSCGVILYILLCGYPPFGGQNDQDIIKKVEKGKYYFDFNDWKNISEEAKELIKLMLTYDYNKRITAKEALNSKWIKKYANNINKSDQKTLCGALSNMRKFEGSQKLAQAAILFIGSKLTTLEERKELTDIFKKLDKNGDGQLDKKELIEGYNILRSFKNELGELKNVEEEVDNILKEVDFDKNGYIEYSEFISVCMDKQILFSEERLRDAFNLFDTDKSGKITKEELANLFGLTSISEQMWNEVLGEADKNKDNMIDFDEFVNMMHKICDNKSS
# Description: In P. falciparum, calcium-dependent protein kinase 1 (PfCDPK1) is expressed during schizogony in the blood and sporozoite stages and is ultimately required for parasite invasion of host cells, parasite motility, and potentially cytokinesis. We identified a series of purine-based, ATP competitive kinase inhibitors from a target-based screen of approximately 20,000 compounds on recombinant PfCDPK1 [9]. Of the most promising hits, the 2,6,9-trisubstitutes purines made up the largest class of compounds coming out of the screen and were therefore chosen as a lead series for chemical optimization.
# [9] = system: P. falciparum NF54; assay: P. falciparum NF54 in vitro potency; type: cell-based; conditions: Plasmodium falciparum, spiroindolones, Tables 8 and 9
# [10] = metabolic stability in mouse liver microsomes; type: in vitro ADME; conditions: for Liver Microsomes CLint, Mouse: intrinsic clearance, high clearance corresponds to low stability; for half-life: mouse, liver microsomes, read-out: Liver Microsomes t1/2 (min), Mouse
# [11] = metabolic stability in human liver microsomes; type: in vitro ADME; conditions: for half-life: human, liver microsomes, read-out: Liver Microsomes t1/2 (min), Human; for Liver Microsomes CLint, Human: intrinsic clearance, high clearance corresponds to low stability
# [12] = in vivo; conditions: mouse, po
# [13] = system: Plasmodium berghei; set-up: method as in earlier work; conditions: single oral dose at 100 mg/kg; cited from earlier work
# [14] = system: 40 mammalian kinases; assay: panel of 40 mammalian kinases; type: biochemical
# [15] = cytotoxicity on Huh7 cells; conditions: human, Huh7 cells
# [16] = cytotoxicity on HEp2 cells; type: cell-based; conditions: human
# [17] = cytotoxicity on CHO cells; type: cell-based; conditions: Chinese hamster
# [18] = cytotoxicity on HeLa cells; type: cell-based; conditions: human
# [19] = system: P. falciparum W2; assay: P. falciparum W2 proliferation assay; type: cell-based; conditions: Plasmodium falciparum, piperidyl benzamides, mean of two experiments
# Description: as §1
# [20] = biological target: QM-PfDHFR (quadruple mutant PfDHFR); set-up: method as in PMID 20350951; conditions: cited from earlier work
# [21] = biological target: WT-PfDHFR (wild type PfDHFR); set-up: method as in PMID 20350951; conditions: cited from earlier work
# [22] = purines, mean of two experiments, read-out: P. falciparum 3D7 EC50
# [23] = mean of two experiments, read-out: PfCDPK1 IC50
# [24] = piperidyl benzamides, mean of two experiments, read-out: P. falciparum 3D7 EC50
structure (smiles),measurement,setting,value
C[C@H]1CCc2c([nH]c3ccccc23)[C@@]2(N1)C(=O)Nc1ccc(Br)cc12 [Compound 22],EC50,[1],16 nM
same,EC50,[2],10 nM
CC1CCc2c([nH]c3ccccc23)C2(N1)C(=O)Nc1ccc(Br)cc12 (stereo not shown) [Compound 21],permeability in a PAMPA assay,[3],99%
same,EC50,[1],80 nM
same,EC50,[2],90 nM
same,Cmax,"[4]; in vivo, po, 25 mg/kg",1400 nM
same,bioavailability,"[4]; in vivo, po, 25 mg/kg",59%
same,oral T1/2,[4]; single 25 mg/kg oral dose,four
same,mouse survival,[5]; single oral dose of 100 mg/kg,slight prolongation in mouse survival over control
same,reduction in parasitemia,[5]; single oral dose of 100 mg/kg,96%
same,solubility,[6],75 µM
N[C@H]1CC[C@H](Nc2nc(Nc3ccc(C(=O)N4CCCCC4)cc3)c3ncn(-c4ccc5c(c4)OCO5)c3n2)CC1 [Compound 4],EC50,[7]; [22],400 nM
same,IC50,[8]; [23],342 nM
C[C@H]1Cc2c([nH]c3cc(F)c(F)cc23)[C@@]2(N1)C(=O)Nc1ccc(Cl)cc12 [Compound 29],EC50,[9],0.2 nM
same,"Liver Microsomes CLint, Mouse",[10],Low
same,half-life,[10],49.1 min
same,half-life,[11],56.4 min
same,"Liver Microsomes CLint, Human",[11],Low
N[C@H]1CC[C@H](Nc2nc(Nc3ccc(C(=O)N4CCCCC4)cc3)c3ncn(-c4cccc(C(=O)O)c4)c3n2)CC1 [Compound 6],EC50,[7]; [22],> 10000 nM
same,IC50,[8]; [23],71 nM
C[C@H]1Cc2c([nH]c3cc(Cl)c(F)cc23)[C@@]2(N1)C(=O)Nc1ccc(Cl)cc12 [Compound 30],EC50,[9],0.9 nM
same,half-life,"[4]; in vivo, po",600 min
same,"Liver Microsomes CLint, Mouse",[10],Low
same,half-life,[10],49 min
same,bioavailability,[12],100%
same,half-life,[11],76 min
same,"Liver Microsomes CLint, Human",[11],Low
same,clearance of P. berghei infection,[13],completely cleared a P. berghei infection in all treated mice
FC(F)(F)Oc1ccc(Nc2cc(Nc3nccn3-c3cccc(C(F)(F)F)c3)ncn2)cc1 [Compound 16],EC50,"[7]; imidazolopyrimidines, Fig. 2, read-out: 3D7 EC50",420 nM
same,activity against a panel of 40 mammalian kinases,[14],did not exhibit significant activity
same,solubility,[6],36 µM
CC(C)(N)C(=O)N1CCn2c(nc(-c3ccc(F)cc3)c2Nc2ccc(F)c(Cl)c2)C1 [Compound 20],Activity (%),"[5]; 1 x 30 mg/kg, 7% Tween 80/3% ethanol (20: 75% PEG300/25%D5W)",99.4%
same,Survival,[5]; 1 x 30 mg/kg,7.7 days
same,Activity (%),[5]; 1 x 100 mg/kg,99.4%
same,Survival,[5]; 1 x 100 mg/kg,17.0 days
same,Activity (%),[5]; 3 x 30 mg/kg,99.8%
same,Survival,[5]; 3 x 30 mg/kg,17.7 days
same,parasitemia reduction,[5]; at all dosing regimens,more than 99%
"N[C@H]1CC[C@H](Nc2nc(Nc3ccc(C(=O)N4CCCCC4)cc3)c3ncn(-c4cccc(F)c4)c3n2)CC1 [Compound 2, purfalcamine]",EC50,[15],5500 nM
same,EC50,[16],7200 nM
same,EC50,[17],12300 nM
same,EC50,[18],7000 nM
same,EC50,[7]; [22],230 nM
same,IC50,[8],17 nM
same,improvement in enzyme potency (2 vs. 3),[8]; compound 2 versus compound 3,greater than 200 fold
CCOc1ccc(-n2cnc3c(Nc4ccc(C(=O)N5CCCCC5)cc4)nc(N[C@H]4CC[C@H](N)CC4)nc32)cc1 [Compound 5],EC50,[7]; [22],535 nM
same,IC50,[8],240 nM
O=C(Nc1cccc(Cl)c1)c1cc(N2CCC(N3CCCC3)CC2)cc(C(F)(F)F)c1 [Compound 11],EC50,[7]; [24],134 ± 56 nM
same,EC50,[19],888 ± 112 nM
O=C(Nc1cccc(Cl)c1)c1cc(N2CCC(N3CCCCC3)CC2)cc(C(F)(F)F)c1 [Compound 12],EC50,[7]; [24],97 ± 18 nM
same,EC50,[19],276 ± 14 nM
C[C@@H]1CCc2c([nH]c3ccccc23)[C@]2(N1)C(=O)Nc1ccc(Br)cc12 [Compound 23],EC50,[1],> 3000 nM
same,EC50,[2],> 5000 nM
CC1(C)N=C(N)N=C(N)N1c1ccc(Cl)cc1 [Cycloguanil],Ki,[20],454 ± 38 nM
same,Ki,[21],1.51 ± 0.1 nM
